Data: patent US12358935B2, “Targeting redox-active pyridinium cations to mitochondria to inhibit proliferation of drug-resistant cancer cells” (The Medical College of Wisconsin, Inc., priority 2018, dated 2025)
Entries after “also recorded” stand apart in the source; their conditions may differ. Like-named read-outs stand apart in the source and are kept apart here.

Assays:
LS513 colon cancer cells [1] = assay: Superoxide production, hydroethidine (HE) assay with HPLC of 2-OH-E+; type: cell-based, human; conditions: 50 μM, 1 h pre-incubation then 1 h HE probe
Protocol: FIGS. 5A-5B. Stimulation of intracellular superoxide of Mito-Py. LS513 colon cancer cells were pre-incubated for 1 h with 50 μM Mito-Py followed by 1-h incubation with the HE probe. 2-OH-E^+ is a specific product of the reaction of the probe with superoxide. (A) Effect of the substituent on the pyridinium ring. (B) Effect of the alkyl linker length in Mito-NP.
Induction of superoxide production by mitochondria-targeted pyridinium cations.

LS513 cells [2] = assay: Cell proliferation, IncuCyte cell confluence; type: cell-based, human; conditions: for IC50: estimated from concentration dependence
Protocol: FIG. 8. Effect of Mito-Py compounds (10 μM) on the proliferation of LS513 cells. (A) Effect of the substituent on the pyridinium ring. (B) Effect of the alkyl linker length in Mito-NP.
FIG. 9. Effect of concentration of Mito-NP-C8 and Mito-NP-C10 on the LS513 cell confluence. Dashed lines correspond to 50% cell confluence.
Antiproliferative effects of mitochondria-targeted pyridinium cations. To test if the mitochondrial redox stress induced by Mito-Py compounds would translate into inhibition of cancer cell proliferation, we compared the effects of Mito-Py of different redox potential and different alkyl linker length on proliferation of LS513 cells. We used the IncuCyte™ Live-Cell Imaging Analyzer that provides real-time cell confluence data (FIG. 8).

LS513 cells [3] = assay: Cell death, Sytox Green; type: cell-based, human; conditions: prolonged (>24 h) incubation
mitochondrial Prx3 [4] = assay: Redox blotting of peroxiredoxin 3; type: cell-based, human; conditions: 10 μM, 1 h, LS513 cells
Protocol: FIG. 6. Effect of Mito-NP-C10 (10 μM, 1 h) on the redox status of cytosolic (Prx1) and mitochondrial (Prx3) peroxiredoxins. **p<0.01
Intracellular localization of redox stress. To understand the fate of superoxide induced by Mito-NP-C10 and determine the localization of the redox cycling process, we performed redox blotting of peroxiredoxin isoforms 1 and 3 (Prx1 and Prx3).

LS513 colon cancer cells [5] = assay: Oxygen consumption rate / mitochondrial respiration; type: cell-based, human
Protocol: FIG. 7. Effect of Mito-NP-C10 (0-100 μM) on the rates of oxygen consumption (OCR) by LS513 colon cancer cells, and on the cell response to mitochondrial stressors: oligomycin (ATP synthase inhibitor), dinitrophenol (DNP, mitochondrial uncoupler) and antimycin A (mitochondrial complex III inhibitor).
Induction of bioenergetic stress. To test the effect of Mito-NP-C10 on the bioenergetic function of LS513 cells, we monitored the mitochondrial respiration in response to acute addition of the compound at different doses (FIG. 7).

MiaPaCa2 cells [6] = assay: Bioenergetic function, Seahorse XF96 flux analyzer; type: cell-based, human
Protocol: FIG. 16. Inhibition of mitochondrial respiration by Mito-NP in MiaPaCa2 cells. (A) Mito-NP injected during the measurements. (B) Cells pretreated with Mito-NP for 24 h. (C) Effect of Mito-NP concentration on ATP-linked respiration rate after 1 h and 24 h incubation. (D) Effect of Mito-NP concentration on glycolytic and mitochondrial ATP production rates after 24-h incubation.
(§1) FIG. 18. (A) Intracellular level of Mito-NP and Mito-NPH. (B) Dynamics of inhibition of mitochondrial respiration by Mito-NP and Mito-NPH. (C) Intracellular generation. 10 μM Mito-NP or Mito-NPH was used.
Immediately (1 h) after injection, a high concentration of Mito-NP (100 μM) was needed to block ATP-linked respiration (FIG. 16A,C). […] One of the hallmarks of cancer cells is their flexibility in using different energetic substrates to sustain growth in the presence of metabolism-targeted drugs.
(§2) We treated pancreatic cancer cells with Mito-NP or Mito-NPH and the intracellular levels of both oxidized, redox-cycling capable Mito-NP, and its cell membrane-permeable reduced precursor, Mito-NPH, were measured using LC-MS/MS. […] The dynamics of inhibition of mitochondrial respiration by Mito-NPH and Mito-NP was used to follow the compounds' uptake rates. […] The increased intracellular level of Mito-NP upon treatment with Mito-NPH also translated into 2-fold stronger stimulation of intracellular O2.^− production, as measured by monitoring O2.^−-specific product of hydroethidine oxidation, 2-OH-E^+ (FIG. 18C). […] Next, we tested the effects of Mito-NPH on MiaPaCa2 cell proliferation and survival. […] 5. Syngraft mouse model. We have established a preliminary syngraft model using mouse FC1242 PDAC cell line. After the tumor has been established and detectable by palpation (seven days after injection of tumor cells), Mito-NPH (0.2 mg per injection) was administered three times per week. Tumor size was measured using calipers and by weighing the tumor tissues at the completion of the study. […] The tumor tissues were analyzed for the level of Mito-NP and Mito-NPH 24 h after the last injection of Mito-NPH.

[7] = Tumor tissue compound levels, LC-MS/MS; type: in vivo, mouse; conditions: 24 h after the last injection of Mito-NPH
Excerpt: (§3) FIG. 20. In vivo effects of Mito-NPH on the FC1242 PDAC tumor growth in mice. (A) Tumor growth curves; (B) tumor wet weight after 9 days of treatment; and (C) LC-MS/MS traces of Mito-NP, Mito-NPH, and their metabolites: hydroxylamine (Mito-HAP) and amine (Mito-AP) derivatives extracted from tumor. n=5 per group, *p<0.05
as §2, with “After the tumor has been established and detectable by palpation (seven days after injection of tumor cells), Mito-NPH (0.2 mg per injection) was administered three times per week.” left out

MiaPaCa2 cells [8] = type: cell-based
Protocol: (§4) FIG. 13. […] Cells were stained with Sytox Green dye after 48-h treatment with the compounds to label dead cells.
FIG. 19. […] MiaPaCa2 cells were incubated with the compounds for 5 days and cells counted (A) or for 24 h, followed by labeling with Sytox Green dead cell fluorescent stain (B).
(§5) 1. Antiproliferative and cytotoxic effects in pancreatic cancer cells. […] To determine the cytotoxic potency of Mito-NP, we used Sytox Green fluorescent marker, which accumulates in dead cells and increases its fluorescence yield upon binding DNA.
We treated pancreatic cancer cells with Mito-NP or Mito-NPH and the intracellular levels of both oxidized, redox-cycling capable Mito-NP, and its cell membrane-permeable reduced precursor, Mito-NPH, were measured using LC-MS/MS. […] The dynamics of inhibition of mitochondrial respiration by Mito-NPH and Mito-NP was used to follow the compounds' uptake rates. […] Next, we tested the effects of Mito-NPH on MiaPaCa2 cell proliferation and survival. […] 5. Syngraft mouse model. We have established a preliminary syngraft model using mouse FC1242 PDAC cell line. […] Tumor size was measured using calipers and by weighing the tumor tissues at the completion of the study. […] The tumor tissues were analyzed for the level of Mito-NP and Mito-NPH 24 h after the last injection of Mito-NPH.

MiaPaCa2 cells [9] = assay: Inhibition of pancreatic cancer cell growth; type: cell-based, human
Protocol: (§6) FIG. 12. (A) Antiproliferative potency of Mito-NP against different pancreatic cancer cells. (B) Comparison of the antiproliferative effects of Mito-NP, with its untargeted analogs (10 μM each).
FIG. 19. Antiproliferative (A) and cytotoxic (B) potency of Mito-NP vs. Mito-NPH. MiaPaCa2 cells were incubated with the compounds for 5 days and cells counted (A) or for 24 h, followed by labeling with Sytox Green dead cell fluorescent stain (B).
as §5
We treated pancreatic cancer cells with Mito-NP or Mito-NPH and the intracellular levels of both oxidized, redox-cycling capable Mito-NP, and its cell membrane-permeable reduced precursor, Mito-NPH, were measured using LC-MS/MS. […] The increased intracellular level of Mito-NP upon treatment with Mito-NPH also translated into 2-fold stronger stimulation of intracellular O2.^− production, as measured by monitoring O2.^−-specific product of hydroethidine oxidation, 2-OH-E^+ (FIG. 18C). […] Tumor size was measured using calipers and by weighing the tumor tissues at the completion of the study. […] The tumor tissues were analyzed for the level of Mito-NP and Mito-NPH 24 h after the last injection of Mito-NPH.

FC1242 PDAC tumor = assay: Syngraft mouse model, tumor growth; type: in vivo; conditions: 0.2 mg per injection, three times per week, 9 days of treatment, FC1242 syngraft in mice
Excerpt: as §3
as §2, with “After the tumor has been established and detectable by palpation (seven days after injection of tumor cells), Mito-NPH (0.2 mg per injection) was administered three times per week.” left out

MiaPaCa2 cells [10] = assay: Cellular oxidants, HE probe with HPLC profiling; type: cell-based, human; conditions: 10 μM
Protocol: FIG. 14. Stimulation of cellular oxidants by Mito-NP in pancreatic cancer cells. Profiles of HE oxidation products in MiaPaCa2 cells treated with Mito-NP (10 μM, 4 h).
as §1
2.1. Generation of O2.^− and other oxidants. […] We have confirmed the mitochondrial localization of O2.^− production using Mito-SOX (Mito-HE-C6) probe with HPLC-based detection of, 2-OH-Mito-E^+, the O2.^−-specific oxidation product of MitoSOX (not shown).
as §2

mitochondrial Prx3 [11] = assay: Redox status of peroxiredoxin 3; type: cell-based, human; conditions: MiaPaCa2 cells
Excerpt: (§7) FIG. 15. Effect of Mito-NP on the redox status of cytosolic (Prx1) and mitochondrial (Prx3) peroxiredoxins in MiaPaCa2 cells. *p<0.05, ***p<0.001.
(§8) 2.2. Prx oxidation. Increased production of O2.^− results in elevated H2O2 flux. We tested the effect of Mito-NP on the redox status of cytosolic (Prx1) and mitochondrial (Prx3) peroxiredoxins (FIG. 15A).

FC1242 cells = assay: Inhibition of pancreatic cancer cell growth; type: cell-based, mouse
Protocol: as §6, §5

cytosolic Prx1 = assay: Redox status of peroxiredoxin 1; type: cell-based, human; conditions: MiaPaCa2 cells
Excerpt: as §7, §8

Panc1 cells = assay: Inhibition of pancreatic cancer cell growth; type: cell-based, human
Protocol: as §6, §5

[12] = tested on: HPNE non-tumorigenic pancreatic duct cell line; assay: Cytotoxicity, Sytox Green dead cell stain; type: cell-based, human; conditions: HPNE non-cancer cells, 48-h treatment
Excerpt: as §4, §5

SMILES: O=[N+]([O-])c1ccc[n+](CCCCCCCC[P+](c2ccccc2)(c2ccccc2)c2ccccc2)c1 [Mito-NP-C8]
- superoxide production (2-OH-E+) (LS513 colon cancer cells [1]): stimulated superoxide production
- IC50 (LS513 cells [2]): 13 µM
- cell death (Sytox Green) (LS513 cells [3]): results in cell death

SMILES: O=[N+]([O-])c1ccc[n+](CCCCCCCCCC[P+](c2ccccc2)(c2ccccc2)c2ccccc2)c1 [Mito-NP-C10]
- oxidation of mitochondrial Prx3 (mitochondrial Prx3 [4]): induces significant oxidation of mitochondrial Prx3
- superoxide production (2-OH-E+) (LS513 colon cancer cells [1]): most potent inducer of superoxide production
- IC50 (LS513 cells [2]): 6 µM
- cell death (Sytox Green) (LS513 cells [3]): results in cell death
- response to mitochondrial stressors (oligomycin, DNP, antimycin A) (LS513 colon cancer cells [5]; 0-100 μM): a loss in response to oligomycin
- mitochondrial respiration rates (OCR) (LS513 colon cancer cells [5]; 0-100 μM, acute addition): time- and concentration-dependent inhibition in mitochondrial respiration rates
- antimycin A-independent oxygen consumption (LS513 colon cancer cells [5]; 30 and 100 μM): increased the rates of antimycin A-independent oxygen consumption

SMILES: O=[N+]([O-])C1=CN(CCCCCCCCCC[P+](c2ccccc2)(c2ccccc2)c2ccccc2)C=CC1 [Mito-NPH]
- dynamics of inhibition of mitochondrial respiration vs Mito-NP (MiaPaCa2 cells [6]; 10 μM): More efficient inhibition of mitochondrial respiration
- compound level in tumor tissues [7]: detected both Mito-NP and Mito-NPH
- cytotoxic potency (Sytox Green) vs Mito-NP (MiaPaCa2 cells [8]; 24 h): significantly stronger cytotoxic agent
- IC50 (MiaPaCa2 cells [9]; 5 days incubation, read-out: IC50 (antiproliferative, cell count)): 1.2 ± 0.1 µM
- tumor growth (size, wet weight) (FC1242 PDAC tumor): inhibition of the tumor growth
- stimulation of intracellular O2.- production (2-OH-E+) vs Mito-NP (MiaPaCa2 cells [10]): 2 fold

SMILES: O=[N+]([O-])c1ccc[n+](CCCCCCCCCC[P+](c2ccccc2)(c2ccccc2)c2ccccc2)c1 [Mito-NP]
- mitochondrial respiration (MiaPaCa2 cells [6]): time- and concentration-dependent inhibition of mitochondrial respiration
- ATP-linked respiration (MiaPaCa2 cells [6]; 10 μM, 24-h incubation): complete inhibition of ATP-linked respiration
- rate of mitochondrial ATP production (MiaPaCa2 cells [6]; 24-h incubation): decrease in the rate of mitochondrial ATP production
- concentration needed to block ATP-linked respiration (MiaPaCa2 cells [6]; 1 h after injection): 100 µM
- glycolytic ATP production (MiaPaCa2 cells [6]; concentrations higher than 10 μM, 24-h incubation): decreased at higher concentrations
- glycolytic ATP production (MiaPaCa2 cells [6]; concentrations up to 10 μM, 24-h incubation): remained unchanged
- oxidation of mitochondrial Prx3 (mitochondrial Prx3 [11]): strong oxidation of mitochondrial Prx3
- IC50 (FC1242 cells): 3.1 ± 0.1 µM
- oxidation of cytosolic Prx1 (cytosolic Prx1): only modest effect on cytosolic Prx1
- cell death (Sytox Green) (MiaPaCa2 cells [8]; 48-h treatment): dose-dependently induced death of MiaPaCa2 cells; also recorded: significantly stronger inducer of MiaPaCa2 cell death than Mito-Met
- IC50 (MiaPaCa2 cells [9]; read-out: IC50 (cell growth)): 2.7 ± 0.2 µM
- cell proliferation (confluence) (LS513 cells [2]; 10 μM): blocked the proliferation of colon cancer cells
- IC50 (Panc1 cells): 2.8 ± 0.3 µM
- cell death (Sytox Green) [12]: No induction of cell death
- O2.- production (2-OH-E+) (MiaPaCa2 cells [10]; 4 h): significant increase
- other HE oxidation products (MiaPaCa2 cells [10]; 4 h): An increased level of other oxidation products
